The values below are quoted from earlier work in patent US10329245B2, “Method for making a prenyl group-substituted tyrosine compound” (King Fahd University of Petroleum and Minerals, priority 2015, dated 2019).

The subject of this data set is AGS (human gastric adenocarcinoma) cells. The conditions noted are these: AGS cell lines, p<0.01.

Like-named read-outs stand apart in the source and are kept apart here.

For `CC(=O)N[C@@H](Cc1ccc(O)c(CC=C(C)C)c1)C(=O)O` [compound 1, (S)-2-Acetamido-3-(4-hydroxy-3-(3-methylbut-2-enyl)phenyl)propanoic acid], the “cell viability, % of control levels” value reads like this: (75 μM compound 1 combined with 100 ng/mL TRAIL) 77±7%; (150 μM compound 1 combined with 100 ng/mL TRAIL) 67±5%.
